This experiment deals with P388. Put plainly: Cytotoxicity against mouse P388 cells. It is filed as functional, cell-based.

Values after ≈ are worked out from the molar mass of the structure shown.

The IC50 is the concentration at which inhibition is half-maximal. A lower IC50 goes with greater potency. `COc1ccc(C[C@H]2C(=O)N[C@@H](C)C(=O)N(C)[C@H]3Cc4ccc(cc4)Oc4cc(ccc4OC)C[C@@H](C(=O)N[C@H](C)C(=O)N[C@@H](C)C(=O)N2C)N(C)C3=O)cc1` yielded an IC50 of 0.0015 mg/L (≈ 0.00195 µM).
`COc1ccc2cc1Oc1ccc(cc1)C[C@@H]1NC(=O)[C@@H](C)NC(=O)[C@@H]3Cc4ccc(OC)c(c4)Oc4ccc(cc4)C[C@@H](C(=O)N3C)N(C)C(=O)[C@H](C)NC(=O)[C@H](C2)NC1=O` had an IC50 of 7.5 mg/L (≈ 8.86 µM).

For the origin of these results see ChEMBL document CHEMBL1141014, “Design and synthesis of a bis(cycloisodityrosine) analogue of RA-VII, an antitumor bicyclic hexapeptide” (Bioorg Med Chem Lett, 2008).
